In patent US20180133221A1, “ADMINISTRATION OF UBIQUITIN-ACTIVATING ENZYME INHIBITOR AND CHEMOTHERAPEUTIC AGENTS” (Millennium Pharmaceuticals, Inc., priority 2014, published 2018):
Where two headings read alike, the source gives them in different places.

Experiments:
[1] = tested on: CTG-0159 human lung NSCLC xenograft; test: CTG-0159 xenograft model, Compound 1 and docetaxel; type: in vivo, Mus musculus/nu/nu mice; settings: for Tumor Volume Day 21: in mm³ (unit assumed)
Protocol: (§1) Docetaxel (Henry Schein, Inc., Pittsburgh Pa.) is formulated in 0.9% saline and administered by intravenous injection (IV) once weekly (QW) at 5 mg/kg or 10 mg/kg. […] Tumors were measured twice weekly using vernier calipers.

[2] = tested on: CTG-0486 human ovarian xenograft; type: in vivo; settings: for Tumor Volume Day 21: in mm³ (unit assumed)
Text: The CTG-0486 model of human ovarian xenograft model was established from a patient-derived tumor collected during surgery from a person with ovarian cancer (serous adenocarcinoma, metastases to the small bowel). CTG-0486 tumor fragments (approximately 2×2×3 mm^3) are implanted into the subcutaneous space in the right dorsal flank of female Mus musculus/nu/nu mice (age 6-9 weeks, Harlan Laboratories, Madison, Wis., USA) using a 13-gauge trocar needle. When the mean tumor volume reached approximately 260 mm3, the animals were randomized into 8 treatment groups (n=5/group).
[…] The once weekly schedule is also described as every 7 days (Q7D).
(§2) Compound 1 [((1R,2R,3S,4R)-2,3-dihydroxy-4-(2-(3-(trifluoromethylthio)-phenyl)pyrazolo[1,5-a]pyrimidin-7-ylamino)cyclopentyl)methyl sulfamate] is formulated in 10-20% HPbCD in sterile water and administered intravenously (IV) or subcutaneously (SC) on a BIW (twice/week schedule; Monday and Thursday or Tuesday and Friday) for either 2-4 weeks.
(§3) Tumors were measured twice weekly using vernier calipers. Tumor volumes were calculated using the standard formula V=W^2×L/2,). When mean tumor volumes reached approximately 200 mm^3 for PHTX-24C, 220 mm^3 for PHTX-Lu132, 150 mm^3 for CTG-0256, 260 mm^3 for CTG-0486, 185 mm^3 for PHTX-17C, 260 mm^3 for CTG-0165, 150 mm^3 for PHTX-14B in the study of Compound 1 and paclitaxel, 180 mm^3 for PHTX-14B in the study of Compound 1 and docetaxel, 200 mm^3 for SKOV-3, 220 mm^3 for PHTX-02B in the study of Compound 1 and docetaxel, 250 mm^3 for PHTX-02B in the study of Compound 1 and paclitaxel, 195 mm^3 for CTG-0159, 180 mm^3 for CTG-0012 or 150 mm^3 for Calu-6, mice were randomized into groups of n=5-7/arm as described in the tables below, and injected with vehicle, Compound 1 or agents (docetaxel, paclitaxel, oxaliplatin, cisplatin or carboplatin), or the combination of Compound 1 plus one of the agents, at various doses and schedules as described in tables below. Tumor size and body weight were measured approximately twice a week for the duration of the study. Mice are euthanized when their tumor volume reached 10% of their body weight, or when the average tumor volume of a treatment or control group reached approximately 2000 mm^3. Tumor growth continued to be monitored after the dosing period in some studies. Average tumor volume is reported as a function of time for selected arms of selected studies in the Figures.
(§4) Measurements from day 0 to day 14, day 19, day 21, or day 28 are analyzed as specified in Tables below. All tumor volumes have a value of 1 added to them before log10 transformation. For each animal, the log tumor volume at day 0 is subtracted from the log tumor volume on the subsequent days. This difference vs. time is used to calculate an area under the curve (AUC) for each animal using the trapezoid rule. […] The synergy score for the combination of agents A and B is defined as
(§5) 100*(mean(AUCAB)−mean(AUCA)−mean(AUCB)+mean(AUCctl))/mean(AUCctl):
(§6) where AUCAB, AUCA, AUCB, and AUCctl are the AUC values for animals in the combination group, the A group, the B group, and the control group, respectively. The standard error of the synergy score is computed based on the variation in the AUC values among the animals. […] If the P-value is above 0.05, then the combination is considered to be additive. If the P-value is below 0.05, and the synergy score is less than zero, then the combination is considered to be synergistic.

[3] = tested on: PHTX-14B breast xenograft; test: PHTX-14B xenograft model, Compound 1 and paclitaxel; type: in vivo, Balb/c Nude Mice; settings: for Tumor Volume Day 28: in mm³ (unit assumed)
Protocol: Paclitaxel (Bristol-Myers Squibb Company) is formulated in 0.9% saline and administered by intravenous injection (IV) on every 4 days (Q4D) or once weekly (QW) at 10 and 20 mg/kg. […] Tumors were measured twice weekly using vernier calipers.

[4] = tested on: PHTX-02B breast xenograft; test: PHTX-02B xenograft model, Compound 1 and docetaxel; type: in vivo, SCID-NOD mice; settings: for Tumor Volume Day 21: in mm³ (unit assumed)
Protocol: as §1

[5] = tested on: PHTX-17C colorectal carcinoma xenograft; type: in vivo; settings: for Tumor Volume Day 21: in mm³ (unit assumed)
Text: The PHTX-17C colorectal carcinoma xenograft model was established from a patient-derived tumor collected during surgery from a person with moderately differentiated adenocarcinoma.PHTX-17C tumor fragments (approximately 2×2×3 mm^3) were implanted into the subcutaneous space in the right dorsal flank of female nude mice (age 5-7 weeks, Balb/c Nude Mice, Shanghai SINO-British SIPPR/BK Lab Animal Ltd, Shanghai, China) using a 13-gauge trocar. When the mean tumor volume reached approximately 185 mm^3, the animals were randomized into 12 treatment groups (n=5/group).
Oxaliplatin (Jiang Su Geng Rui Pharmaceuticals, Inc.) is formulated in 0.9% saline and administered by IP injection once weekly (QW) at 7.5 or 12.5 mg/kg. The once weekly schedule is also described as every 7 days (Q7D).
as §2, §3, §4, §5, §6

NS(=O)(=O)OC[C@H]1C[C@@H](Nc2ccnc3cc(-c4cccc(SC(F)(F)F)c4)nn23)[C@H](O)[C@@H]1O [Compound 1, ((1R,2R,3S,4R)-2,3-dihydroxy-4-(2-(3-(trifluoromethylthio)phenyl)pyrazolo[1,5-a]pyrimidin-7-ylamino)cyclopentyl)methyl sulfamate]
Tumor Volume Day 21 ([1]; 6.25 mg/kg Compound 1 BIWx3 IV): 1618.9 | Tumor Volume Day 21 ([1]; 15 mg/kg Compound 1 BIWx3 IV): 2373.2 | Tumor Volume Day 21 ([1]; 20 mg/kg Compound 1 BIWx3 IV): 1376.2 | tumor growth ([1]; Compound 1 alone at 20, 15, and 6.25 mg/kg IV BIW): did not inhibit tumor growth | Tumor Volume Day 21 ([2]; 6.25 mg/kg Compound 1 BIWx3 SC): 476.9 | Tumor Volume Day 21 ([2]; 15 mg/kg Compound 1 BIWx3 SC): 131.9 | Tumor Volume Day 21 ([2]; 20 mg/kg Compound 1 BIWx3 SC): 92.7 | Tumor Volume Day 21 ([2]; 25 mg/kg Compound 1 BIWx3 SC): 151.7 | tolerability ([2]; 20 and 25 mg/kg doses of Compound 1, SC BIW): not tolerated | anti-tumor activity compared to vehicle control ([2]; single agent Compound 1 SC at 6.25, 15, 20 and 25 mg/kg BIW for 3 weeks): modest to strong anti-tumor activity | Tumor Volume Day 28 ([3]; 10 mg/kg Compound 1 BIWx4 SC): 690.0 | Tumor Volume Day 28 ([3]; 20 mg/kg Compound 1 BIWx4 SC): 480.6 | Tumor Volume Day 28 ([3]; 30 mg/kg Compound 1 BIWx4 SC): 165.1 | anti-tumor activity ([3]; single agent Compound 1 SC at 30 mg/kg BIW for 4 weeks): strong anti-tumor activity | anti-tumor activity compared to vehicle control ([3]; single agent Compound 1 SC at 10, and 20 mg/kg BIW for 4 weeks): modest anti-tumor activity | Tumor Volume Day 21 ([4]; 7.5 mg/kg Compound 1 BIWx3 SC): 596.5 | Tumor Volume Day 21 ([4]; 15 mg/kg Compound 1 BIWx3 SC): 324.8 | Tumor Volume Day 21 ([4]; 20 mg/kg Compound 1 BIWx3 IV): 178.8 | Tumor Volume Day 21 ([4]; 20 mg/kg Compound 1 BIWx3 SC): 185 | tumor growth compared to the vehicle control group ([4]; single agent Compound 1 SC at 7.5, 15 and 20 mg/kg BIW, IV also 20 mg/kg BIW): inhibited tumor growth | Tumor Volume Day 21 ([5]; 20 mg/kg Compound 1 BIWx3 IV): 1875.6 | Tumor Volume Day 21 ([5]; 25 mg/kg Compound 1 BIWx3 IV): 2159.3 | Tumor Volume Day 21 ([5]; 30 mg/kg Compound 1 BIWx3 IV): 1612.7 | anti-tumor activity compared to vehicle control ([5]; single agent Compound 1 IV at 20, 25, 30 mg/kg BIW): modest anti-tumor activity
